Experimental data: PubChem BioAssay AID434987 (Southern Research Specialized Biocontainment Screening …, 2010)
Calls of active or inactive are those of the source. No rule for the calls is given here.

Test system: M. tuberculosis H37Rv growth inhibition with meropenem
Assay: dose response, H37Rv, with and without meropenem (AID 434987);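 also: growth over 7 days at 37 °C before Alamar Blue read on day 9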
[1] = M. tuberculosis H37Rv growth inhibition, measured here: IC50 without meropenem
[2] = M. tuberculosis H37Rv growth inhibition, measured here: IC90 without meropenem
[3] = measured here: IC90 with meropenem

Work on `CCC(=O)c1ccc(OCc2ccc(C(=O)OC)cc2)c(OC)c1` yielded an IC50 of 27.9 µM, an IC50 [1] greater than 100 µM and an IC90 [2] greater than 100 µM. The IC90 [3] was greater than 100 µM.
In the case of `CCSc1nnc(NC(=O)C2Cc3ccccc3CN2C(=O)c2ccco2)s1` (configuration not stated), the IC50 is reported as 2.69 µM, the IC50 [1] is reported as greater than 100 µM and the IC90 [2] is reported as greater than 100 µM. It also gave an IC90 [3] greater than 100 µM.
`O=C(Cn1cnc2sc3c(c2c1=O)CCCC3)NCC(=O)Nc1ccccc1F` was tested, and the IC50 was 88.3 µM (inactive), the IC50 [1] was greater than 100 µM and the IC90 [2] was greater than 100 µM. The IC90 [3] was 95.5 µM.
For `O=C(CCN1C(=O)c2ccccc2S1(=O)=O)Nc1ccc(Cl)cc1`, the IC50 was > 100 µM (inactive), the IC50 [1] was greater than 100 µM and the IC90 [2] was greater than 100 µM. It also gave an IC90 [3] greater than 100 µM.
`O=C(CSc1ncnc2c1cnn2-c1ccccc1)Nc1ccc2c(c1)OCO2` was tested, and the IC50 was 27.3 µM (inactive), the IC50 [1] was 49.1 µM and the IC90 [2] was greater than 100 µM. The IC90 [3] was greater than 100 µM.
`COc1ccccc1CNC(=O)c1ccc(SC)cc1OC` was tested, and the IC50 was 49.8 µM (inactive), the IC50 [1] was 83.5 µM and the IC90 [2] was greater than 100 µM. It also gave an IC90 [3] greater than 100 µM.
With `COc1ccccc1N1CCN(/N=C/c2cccc(OC)c2OC)CC1` the IC50 was > 100 µM (inactive), the IC50 [1] was greater than 100 µM and the IC90 [2] was greater than 100 µM. The IC90 [3] was greater than 100 µM.
With `O=c1c2cc(Cl)ccc2[nH]c(=S)n1Cc1cccs1` the IC50 was 5.72 µM, the IC50 [1] was 20.4 µM and the IC90 [2] was greater than 50 µM. It also gave an IC90 [3] of 13.2 µM.
In the case of `CN1CCN(S(=O)(=O)c2ccc(NC(=O)c3ccc(Br)s3)cc2)CC1`, the IC50 is reported as 74.7 µM (inactive), the IC50 [1] is reported as greater than 100 µM and the IC90 [2] is reported as greater than 100 µM. It also gave an IC90 [3] greater than 100 µM.
For `Cc1nn(-c2ccccc2)c(Cl)c1CN(C(=O)CCl)c1cccc2ccccc12`, the IC50 was 18.7 µM (inactive), the IC50 [1] was 33 µM and the IC90 [2] was 53.4 µM. For the same compound, the IC90 [3] was 48.2 µM.
`CC(=O)Nc1scc(C)c1-c1nc2ccccc2s1` was tested, and the IC50 was > 100 µM (inactive), the IC50 [1] was greater than 100 µM and the IC90 [2] was greater than 100 µM. It also gave an IC90 [3] greater than 100 µM.
In the case of `O=C(Nc1ccc([N+](=O)[O-])cc1)c1cc2ccccc2nc1Cl`, the IC50 is reported as > 100 µM (inactive), the IC50 [1] is reported as greater than 100 µM and the IC90 [2] is reported as greater than 100 µM. For the same compound, the IC90 [3] was greater than 100 µM.
In the case of `COCCCNCCOCCOc1ccc(C)cc1Br`, the IC50 is reported as > 100 µM (inactive), the IC50 [1] is reported as greater than 100 µM and the IC90 [2] is reported as greater than 100 µM. The IC90 [3] was greater than 100 µM.
For `CCC(CC)C(=O)Nc1ccc(Sc2ccc([N+](=O)[O-])cc2)cc1`, the IC50 was > 100 µM (inactive), the IC50 [1] was greater than 100 µM and the IC90 [2] was greater than 100 µM. The IC90 [3] was greater than 100 µM.
For `N#Cc1c(C(F)(F)F)cc(-c2ccccc2)nc1SCC(=O)Nc1sc2c(c1C#N)CCC2`, the IC50 was > 100 µM (inactive), the IC50 [1] was greater than 100 µM and the IC90 [2] was greater than 100 µM. It also gave an IC90 [3] greater than 100 µM.
In the case of `NNC(=S)NC1CC2CC1C1C=CCC21` (configuration not stated), the IC50 is reported as 12.4 µM (inactive), the IC50 [1] is reported as 21.1 µM and the IC90 [2] is reported as 23.9 µM. The IC90 [3] was 13.5 µM.
For `CN(C(=O)Nc1ccc(Cl)cc1)n1cnc2ccccc2c1=O`, the IC50 was 44.9 µM (inactive), the IC50 [1] was 95.9 µM and the IC90 [2] was greater than 100 µM. The IC90 [3] was 48.6 µM.
With `Cc1ccc(Sc2c(C(=O)Nc3ccc(F)cc3F)c(C(F)(F)F)nn2C)cc1` the IC50 was > 100 µM (inactive), the IC50 [1] was greater than 100 µM and the IC90 [2] was greater than 100 µM. The IC90 [3] was greater than 100 µM.
With `O=c1[nH]c(CN(CCO)CCO)nc2c1C1(CCCCC1)Cc1ccccc1-2` the IC50 was 19.6 µM, the IC50 [1] was greater than 100 µM and the IC90 [2] was greater than 100 µM. It also gave an IC90 [3] greater than 100 µM.
`Cc1ccc2c(c1)CCCN2C(=O)c1cc2ccccc2oc1=O` gave an IC50 of 22.9 µM, an IC50 [1] greater than 100 µM and an IC90 [2] greater than 100 µM. The IC90 [3] was greater than 25 µM.
For `CCCCn1nc2cc(C(=O)NCC34CC5CC(CC(C5)C3)C4)ccc2c1OCC`, the IC50 was 55.5 µM (inactive), the IC50 [1] was greater than 100 µM and the IC90 [2] was greater than 100 µM. The IC90 [3] was greater than 100 µM.
Work on `O=C(NN1C(=O)C2C(C1=O)C1C=CC2C12CC2)c1ccncc1` (configuration not stated) yielded an IC50 of 12.3 µM, an IC50 [1] of 55.9 µM and an IC90 [2] greater than 100 µM. The IC90 [3] was 13.9 µM.
`O=C(Nc1ccc(N2CCCCC2)cc1)c1cc([N+](=O)[O-])cc([N+](=O)[O-])c1` was tested, and the IC50 was 43.9 µM (inactive), the IC50 [1] was greater than 100 µM and the IC90 [2] was greater than 100 µM. For the same compound, the IC90 [3] was greater than 100 µM.
`CCOC(=O)c1c(NC(=O)C(=O)N/N=C/c2ccccc2OC)sc2c1CCCCC2` was tested, and the IC50 was > 100 µM (inactive), the IC50 [1] was greater than 100 µM and the IC90 [2] was greater than 100 µM. It also gave an IC90 [3] greater than 100 µM.
In the case of `COc1ccc(OC)c(NC(=O)CS(=O)(=O)c2ccccc2)c1`, the IC50 is reported as 12.1 µM (inactive), the IC50 [1] is reported as 28.7 µM and the IC90 [2] is reported as greater than 100 µM. It also gave an IC90 [3] of 14.3 µM.
Work on `O=c1oc(-c2ccco2)nc2sc3c(c12)CCCCC3` yielded an IC50 of 9.28 µM, an IC50 [1] of 67.6 µM and an IC90 [2] of 90.2 µM. The IC90 [3] was 38.5 µM.
With `Cc1cccnc1NC(=O)c1cc2ccccc2oc1=O` the IC50 was 46.7 µM (inactive), the IC50 [1] was greater than 100 µM and the IC90 [2] was greater than 100 µM. It also gave an IC90 [3] greater than 100 µM.
For `Cn1nnnc1Sc1ncnc2scc(-c3ccccc3)c12`, the IC50 was > 100 µM (inactive), the IC50 [1] was greater than 100 µM and the IC90 [2] was greater than 100 µM. It also gave an IC90 [3] greater than 100 µM.
`COc1ccc(C(=O)Nc2nc3ccc(OC)cc3s2)cc1` showed an IC50 of 21.2 µM, an IC50 [1] of 65.1 µM and an IC90 [2] greater than 100 µM. For the same compound, the IC90 [3] was greater than 100 µM.
With `NC(=O)[C@@H]1CC2(CC(c3cccc(NC(=O)COc4ccc(Cl)cc4)c3)=NO2)CN1C(=O)COc1ccc(Cl)cc1` (some centres not stated) the IC50 was 75.4 µM (inactive), the IC50 [1] was greater than 100 µM and the IC90 [2] was greater than 100 µM. The IC90 [3] was greater than 100 µM.
With `Cc1ncc(CCl)c2c1OC(C)(C)OC2` the IC50 was 42.5 µM (inactive), the IC50 [1] was 89.2 µM and the IC90 [2] was greater than 100 µM. It also gave an IC90 [3] greater than 100 µM.
In the case of `O=C(NN=C1CCCC1)c1cccs1`, the IC50 is reported as 23.6 µM (inactive), the IC50 [1] is reported as 50.3 µM and the IC90 [2] is reported as greater than 100 µM. The IC90 [3] was greater than 100 µM.
For `CCOc1cc(/C=N\NC(=O)c2ccc(NC(=O)C(C)(C)C)cc2)ccc1OC(=O)c1ccc(C)cc1`, the IC50 was > 100 µM (inactive), the IC50 [1] was greater than 100 µM and the IC90 [2] was greater than 100 µM. For the same compound, the IC90 [3] was greater than 100 µM.
In the case of `COc1ccc(-c2cc(=Nc3ccc(C)cc3)c3ccccc3o2)cc1`, the IC50 is reported as 78.3 µM (inactive), the IC50 [1] is reported as greater than 100 µM and the IC90 [2] is reported as greater than 100 µM. The IC90 [3] was 98.3 µM.
For `O=C(CN1CCC(O)(c2ccc3c(c2)OCO3)CC1)OC1CCCCC1`, the IC50 was 12.8 µM, the IC50 [1] was 38.5 µM and the IC90 [2] was greater than 100 µM. For the same compound, the IC90 [3] was 35.3 µM.
Compound `Cc1cc(Br)ccc1NC(=O)CN1C(=O)C2CC=CCC2C1=O` (configuration not stated) has an IC50 of 1 µM, an IC50 [1] of 8.65 µM and an IC90 [2] of 26.7 µM. For the same compound, the IC90 [3] was 38.7 µM.
`CCN(CC)c1ccc(N=Cc2c(O)n(-c3ccc(Cl)cc3)c(=O)[nH]c2=O)cc1` was tested, and the IC50 was 20.9 µM, the IC50 [1] was greater than 100 µM and the IC90 [2] was greater than 100 µM. The IC90 [3] was greater than 100 µM.
For `CC(C)NC(=O)C(=O)NNC(=O)C12CC3CC(CC(C3)C1)C2`, the IC50 was 15.6 µM, the IC50 [1] was 81.8 µM and the IC90 [2] was greater than 100 µM. The IC90 [3] was greater than 100 µM.
`NC(=O)C1CCCN(C(=O)c2ccc(NC(=O)c3cccs3)cc2)C1` (configuration not stated) was tested, and the IC50 was > 100 µM (inactive), the IC50 [1] was greater than 100 µM and the IC90 [2] was greater than 100 µM. It also gave an IC90 [3] greater than 100 µM.
For `Cc1nn(C)c(C(=O)NC(=S)Nc2ccccc2Br)c1Cl`, the IC50 was > 100 µM (inactive), the IC50 [1] was greater than 100 µM and the IC90 [2] was greater than 100 µM. It also gave an IC90 [3] greater than 100 µM.
For `CSCC(=O)Nc1ccc(F)c(Cl)c1`, the IC50 was 10.1 µM (inactive), the IC50 [1] was 21.9 µM and the IC90 [2] was greater than 100 µM. It also gave an IC90 [3] greater than 100 µM.
For `COc1ccc(Cn2c(C)nc3c(c(=O)c4ccccc4n3C)c2=O)cc1`, the IC50 was > 100 µM (inactive), the IC50 [1] was greater than 100 µM and the IC90 [2] was greater than 100 µM. The IC90 [3] was greater than 100 µM.
`c1ccc(-c2noc(-c3cccc4ccccc34)n2)cc1` showed an IC50 of 20.2 µM, an IC50 [1] greater than 100 µM and an IC90 [2] greater than 100 µM. It also gave an IC90 [3] greater than 100 µM.
